Data published in US20230114728A1 (Venatorx Pharmaceuticals, Inc., priority 2019, published 2023).
In brackets after ≈: the same amount, converted by molar mass.

Experiments:
Assay type in all cases: cell-based
N. gonorrhoeae WHO L = test: Liquid broth MIC in Fastidious broth; conditions: Neisseria gonorrhoeae; N. gonorrhoeae strain WHO L; Fastidious broth; read-out: Minimum Inhibitory Concentration, N. gonorrhoeae WHO L
How it was run: (§1)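 Colonies were swabbed from chocolate agar after 24 h growth and standardised by optical density at 600 nm. Compounds were serially diluted twofold in Fastidious broth, and bacteria added to give 5×10^5 CFU/mL. After about 24 h at 36 °C in 5% CO2, the lowest concentration allowing under 10% growth was taken as MIC.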

N. gonorrhoeae WHO G = test: Liquid broth MIC in Fastidious broth; conditions: Neisseria gonorrhoeae; N. gonorrhoeae strain WHO G; Fastidious broth; read-out: Minimum Inhibitory Concentration, N. gonorrhoeae WHO G
How it was run: as §1

[1] = tested on: N. gonorrhoeae ATCC 49226; test: Liquid broth MIC in Fastidious broth; conditions: Neisseria gonorrhoeae, ATCC49226; N. gonorrhoeae strain ATCC 49226; Fastidious broth; read-out: Minimum Inhibitory Concentration, N. gonorrhoeae ATCC 49226
How it was run: as §1

N. gonorrhoeae FA1090 = test: Liquid broth MIC in Fastidious broth; conditions: Neisseria gonorrhoeae; N. gonorrhoeae strain FA1090; Fastidious broth; read-out: Minimum Inhibitory Concentration, N. gonorrhoeae FA1090
How it was run: as §1

N. gonorrhoeae WHO K = test: Liquid broth MIC in Fastidious broth; conditions: Neisseria gonorrhoeae, read-out: Minimum Inhibitory Concentration, N. gonorrhoeae WHO K
How it was run: (§2)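 MIC = lowest concentration giving <10% growth relative to untreated wells, scored by eye after ~24 h at 36 °C, 5% CO2. Strains carry mosaic PBP2; inoculum 5×10^5 CFU/mL in Fastidious broth with 2-fold serial compound dilutions.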

N. gonorrhoeae H041 = test: Liquid broth MIC in Fastidious broth; conditions: Neisseria gonorrhoeae, H041, read-out: Minimum Inhibitory Concentration, N. gonorrhoeae H041
How it was run: as §2

E. coli ATCC 25922 = test: Broth microdilution MIC in CAMHB; conditions: Escherichia coli, ATCC25922; E. coli ATCC 25922; MHB; read-out: Minimum Inhibitory Concentration, E. coli 25922
How it was run: (§3)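 Hyper-permeable or efflux-deficient strains serve to probe outer-membrane penetration. Growth inhibition is scored visually after 16-20 h at 37° C in CAMHB, starting from 2-8×10^5 CFU/mL.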

E. coli AG100A = test: Broth microdilution MIC in CAMHB; conditions: Escherichia coli, read-out: Minimum Inhibitory Concentration, E. coli AG100A
How it was run: as §3

E. coli D22 = test: Broth microdilution MIC in CAMHB; conditions: Escherichia coli; E. coli D22 (hyper-permeable); MHB; read-out: Minimum Inhibitory Concentration, E. coli D22
How it was run: as §3

E. coli AG100 = test: Broth microdilution MIC in CAMHB; conditions: Escherichia coli; E. coli AG100 (wild-type parent); MHB; read-out: Minimum Inhibitory Concentration, E. coli AG100
How it was run: as §3

A. baumannii ATCC 19606 = test: Broth microdilution MIC in CAMHB; conditions: Acinetobacter baumannii, ATCC19606; MHB; read-out: Minimum Inhibitory Concentration, A. baumannii ATCC 19606
How it was run: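 CLSI microdilution; CAMHB; inoculum 2-8×10^5 CFU/mL from 3-5 h 37° C culture; 2-fold compound series; 16-20 h, 37° C; MIC = lowest well without visible growth.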

| SMILES | MIC (N. gonorrhoeae WHO L) [µg/mL] | MIC (N. gonorrhoeae WHO G) [µg/mL] | MIC [1] [µg/mL] | MIC (N. gonorrhoeae FA1090) [µg/mL] | MIC (N. gonorrhoeae WHO K) [µg/mL] | MIC (N. gonorrhoeae H041) [µg/mL] | MIC (E. coli ATCC 25922) [µg/mL] | MIC (E. coli AG100A) [µg/mL] | MIC (E. coli D22) [µg/mL] | MIC (E. coli AG100) [µg/mL] | MIC (A. baumannii ATCC 19606) [µg/mL] |
| --- | --- | --- | --- | --- | --- | --- | --- | --- | --- | --- | --- |
| NS(=O)(=O)NC(C(=O)N[C@H]1Cc2cccc(C(=O)O)c2OB1O)c1ccc(C(=O)O)c(F)c1 (stereo partly drawn) [Example 44, (3R)-3-(2-(4-carboxy-3-fluorophenyl)-2-(sulfamoylamino)acetamido)-2-hydroxy-3,4-dihydro-2H-benzo[e][1,2]oxaborinine-8-carboxylic acid] | > 64 | > 64 | > 64 | > 64 | > 64 | > 64 | > 128 | > 128 | > 128 | > 128 | > 128 |
| CCN1CCN(C(=O)NC(C(=O)N[C@H]2Cc3cccc(C(=O)O)c3OB2O)c2ccc(C(N)=O)c(O)c2)C(=O)C1=O (stereo partly drawn) [Example 45, (3R)-3-(2-(4-carbamoyl-3-hydroxyphenyl)-2-(4-ethyl-2,3-dioxopiperazine-1-carboxamido)acetamido)-2-hydroxy-3,4-dihydro-2H-benzo[e][1,2]oxaborinine-8-carboxylic acid] | 16 to 32 (≈ 28.2 to 56.4 µM) | 0.25 to 0.5 (≈ 0.441 to 0.881 µM) | 1 to 2 (≈ 1.76 to 3.53 µM) | < 0.125 | 16 to 32 (≈ 28.2 to 56.4 µM) | 16 to 32 (≈ 28.2 to 56.4 µM) | 32 to 64 (≈ 56.4 to 113 µM) | 2 to 4 (≈ 3.53 to 7.05 µM) | < 0.25 | 32 to 64 (≈ 56.4 to 113 µM) | > 128 |
| NC(=O)c1ccc(C(NC(=O)N2CCN(CCF)C(=O)C2=O)C(=O)N[C@H]2Cc3cccc(C(=O)O)c3OB2O)cc1O (stereo partly drawn) [Example 46, (3R)-3-(2-(4-carbamoyl-3-hydroxyphenyl)-2-(4-(2-fluoroethyl)-2,3-dioxopiperazine-1-carboxamido)acetamido)-2-hydroxy-3,4-dihydro-2H-benzo[e][1,2]oxaborinine-8-carboxylic acid] | 16 to 32 (≈ 27.3 to 54.7 µM) | 0.25 to 0.5 (≈ 0.427 to 0.854 µM) | 1 to 2 (≈ 1.71 to 3.42 µM) | < 0.125 | 16 to 32 (≈ 27.3 to 54.7 µM) | 16 to 32 (≈ 27.3 to 54.7 µM) | 32 to 64 (≈ 54.7 to 109 µM) | 2 to 4 (≈ 3.42 to 6.83 µM) | < 0.25 | 32 to 64 (≈ 54.7 to 109 µM) | > 128 |
| NCCCN1CCN(C(=O)NC(C(=O)N[C@H]2Cc3cccc(C(=O)O)c3OB2O)c2ccc(C(N)=O)c(O)c2)C(=O)C1=O (stereo partly drawn) [Example 47, (3R)-3-(2-(4-(3-aminopropyl)-2,3-dioxopiperazine-1-carboxamido)-2-(4-carbamoyl-3-hydroxyphenyl)acetamido)-2-hydroxy-3,4-dihydro-2H-benzo[e][1,2]oxaborinine-8-carboxylic acid] | > 64 | 4 to 8 (≈ 6.71 to 13.4 µM) | 4 to 8 (≈ 6.71 to 13.4 µM) | 0.25 to 0.5 (≈ 0.419 to 0.838 µM) | > 64 | > 64 | > 128 | 2 to 4 (≈ 3.35 to 6.71 µM) | 2 to 4 (≈ 3.35 to 6.71 µM) | > 128 | > 128 |
| CCN1CCN(C(=O)NC(C(=O)N[C@H]2Cc3cccc(C(=O)O)c3OB2O)c2ccc(C(=O)O)c(OC)c2)C(=O)C1=O (stereo partly drawn) [Example 48, (3R)-3-(2-(4-carboxy-3-methoxyphenyl)-2-(4-ethyl-2,3-dioxopiperazine-1-carboxamido)acetamido)-2-hydroxy-3,4-dihydro-2H-benzo[e][1,2]oxaborinine-8-carboxylic acid] | 16 to 32 (≈ 27.5 to 55 µM) | 1 to 2 (≈ 1.72 to 3.43 µM) | 4 to 8 (≈ 6.87 to 13.7 µM) | 0.25 to 0.5 (≈ 0.429 to 0.859 µM) | 4 to 8 (≈ 6.87 to 13.7 µM) | 16 to 32 (≈ 27.5 to 55 µM) | 32 to 64 (≈ 55 to 110 µM) | 8 to 16 (≈ 13.7 to 27.5 µM) | < 0.25 | > 128 | > 128 |
| O=C(Nc1ccccc1)NC(C(=O)N[C@H]1Cc2ccc(F)c(C(=O)O)c2OB1O)c1ncc(O)cc1F (stereo partly drawn) [Example 49, (3R)-7-fluoro-3-(2-(3-fluoro-5-hydroxypyridin-2-yl)-2-(3-phenylureido)acetamido)-2-hydroxy-3,4-dihydro-2H-benzo[e][1,2]oxaborinine-8-carboxylic acid] | 16 to 32 (≈ 31.2 to 62.5 µM) | 16 to 32 (≈ 31.2 to 62.5 µM) | 16 to 32 (≈ 31.2 to 62.5 µM) | 4 to 8 (≈ 7.81 to 15.6 µM) | > 64 | > 64 | > 128 | > 128 | 8 to 16 (≈ 15.6 to 31.2 µM) | > 128 | > 128 |
| CCN1CCN(C(=O)NC(C(=O)N[C@H]2Cc3cccc(C(=O)O)c3OB2O)c2ccc(N)c(F)c2)C(=O)C1=O (stereo partly drawn) [Example 50, (3R)-3-(2-(4-amino-3-fluorophenyl)-2-(4-ethyl-2,3-dioxopiperazine-1-carboxamido)acetamido)-2-hydroxy-3,4-dihydro-2H-benzo[e][1,2]oxaborinine-8-carboxylic acid] | 16 to 32 (≈ 29.6 to 59.1 µM) | 1 to 2 (≈ 1.85 to 3.69 µM) | 1 to 2 (≈ 1.85 to 3.69 µM) | < 0.125 | 16 to 32 (≈ 29.6 to 59.1 µM) | 16 to 32 (≈ 29.6 to 59.1 µM) | 32 to 64 (≈ 59.1 to 118 µM) | 2 to 4 (≈ 3.69 to 7.39 µM) | 2 to 4 (≈ 3.69 to 7.39 µM) | 32 to 64 (≈ 59.1 to 118 µM) | > 128 |
| N=C(N)NCCN1CCN(C(=O)NC(C(=O)N[C@H]2Cc3ccc(F)c(C(=O)O)c3OB2O)c2ncc(O)cc2F)C(=O)C1=O (stereo partly drawn) [Example 51, (3R)-7-fluoro-3-(2-(3-fluoro-5-hydroxypyridin-2-yl)-2-(4-(2-guanidinoethyl)-2,3-dioxopiperazine-1-carboxamido)acetamido)-2-hydroxy-3,4-dihydro-2H-benzo[e][1,2]oxaborinine-8-carboxylic acid] | > 64 | 4 to 8 (≈ 6.47 to 12.9 µM) | 4 to 8 (≈ 6.47 to 12.9 µM) | 4 to 8 (≈ 6.47 to 12.9 µM) | > 64 | > 64 | 32 to 64 (≈ 51.8 to 104 µM) | 8 to 16 (≈ 12.9 to 25.9 µM) | 8 to 16 (≈ 12.9 to 25.9 µM) | 32 to 64 (≈ 51.8 to 104 µM) | > 128 |
| N=C(N)NC(C(=O)N[C@H]1Cc2ccc(F)c(C(=O)O)c2OB1O)c1ncc(O)cc1F (stereo partly drawn) [Example 52, (3R)-7-fluoro-3-(2-(3-fluoro-5-hydroxypyridin-2-yl)-2-guanidinoacetamido)-2-hydroxy-3,4-dihydro-2H-benzo[e][1,2]oxaborinine-8-carboxylic acid] | > 64 | > 64 | > 64 | > 64 | > 64 | > 64 | > 128 | > 128 | > 128 | > 128 | > 128 |
| CCN1CCN(C(=O)NC(C(=O)N[C@H]2Cc3ccc(C=O)c(C(=O)O)c3OB2O)c2csc(N)n2)C(=O)C1=O (stereo partly drawn) [Example 57, (3R)-3-(2-(2-aminothiazol-4-yl)-2-(4-ethyl-2,3-dioxopiperazine-1-carboxamido)acetamido)-7-formyl-2-hydroxy-3,4-dihydro-2H-benzo[e][1,2]oxaborinine-8-carboxylic acid] | > 64 | 16 to 32 (≈ 28.7 to 57.3 µM) | 16 to 32 (≈ 28.7 to 57.3 µM) | 4 to 8 (≈ 7.16 to 14.3 µM) | > 64 | > 64 | 32 to 64 (≈ 57.3 to 115 µM) | 32 to 64 (≈ 57.3 to 115 µM) | 8 to 16 (≈ 14.3 to 28.7 µM) | > 128 | > 128 |
| CCN1CCN(C(=O)NC(C(=O)N[C@H]2Cc3ccc(CO)c(C(=O)O)c3OB2O)c2csc(N)n2)C(O)C1=O (stereo partly drawn) [Example 58, (3R)-3-(2-(2-aminothiazol-4-yl)-2-(4-ethyl-2-hydroxy-3-oxopiperazine-1-carboxamido)acetamido)-2-hydroxy-7-(hydroxymethyl)-3,4-dihydro-2H-benzo[el][1,2]oxaborinine-8-carboxylic acid] | > 64 | > 64 | > 64 | > 64 | > 64 | > 64 | > 128 | > 128 | > 128 | > 128 | > 128 |
| CCN1CCN(C(=O)NC(C(=O)N[C@H]2Cc3ccc(O[C@@H]4CN[C@H](C(=O)N(C)C)C4)c(C(=O)O)c3OB2O)c2ccccc2)C(=O)C1=O (stereo partly drawn) [Example 59, (3R)-7-(((3S,5S)-5-(dimethylcarbamoyl)pyrrolidin-3-yl)oxy)-3-(2-(4-ethyl-2,3-dioxopiperazine-1-carboxamido)-2-phenylacetamido)-2-hydroxy-3,4-dihydro-2H-benzo[e][1,2]oxaborinine-8-carboxylic acid] | > 64 | > 64 | > 64 | 4 to 8 (≈ 6.02 to 12 µM) | > 64 | > 64 | > 128 | 32 to 64 (≈ 48.2 to 96.3 µM) | 32 to 64 (≈ 48.2 to 96.3 µM) | > 128 | > 128 |
